Data on 4 compounds can be found in US12295936B2, “Immunomodulating urea azalides” (Zoetis Services LLC, priority 2020, dated 2025).

Converted amounts (≈) assume the structure as drawn. Like-named read-outs stand apart in the source and are kept apart here.

One assay has as its system H. somni. In words: In-vitro MIC model (CLSI broth micro-dilution). A general note: Dilution methods test growth across graded concentrations, often in twofold steps.
The subject of another assay is M. haemolytica. Kind of assay: In-vitro MIC model (CLSI broth micro-dilution).
Assay [1] concerns P. multocida. In words: In-vitro MIC model (CLSI broth micro-dilution).
In assay [2] the test system is P. multocida. Kind of assay: Murine P. multocida intranasal challenge study with lung tissue RNA sequence analysis. The class given is in vivo, mice. The settings on record: subcutaneous 18 hours after challenge (5×10^3 CFU/mouse): tulathromycin 16 mg/kg, M9 32 mg/kg, ceftiofur 9 mg/kg; placebo 0%. As to the method:
In one murine P. multocida intranasal challenge study, mice were administered tulathromycin (16 mg/kg; T02), M9 (32 mg/kg; T03), or ceftiofur (9 mg/kg; T04) by subcutaneous injection 18 hours after bacterial challenge (5×10^3 CFU/mouse) for lung tissue RNA sequence analysis. Survival at Day 7 was about 80%, 50%, and 90% for T02, T03, and T04, respectively, compared to placebo at 0%. Differential gene expression from total lung tissue RNA sequence analysis indicated at least 226 unique genes were up or down regulated (with significance) for T03. Output from ingenuity pathway analysis of these unique genes predicted major upstream regulators of the involved pathways. Data was analyzed based on the number of genes being modulated in the same direction that were associated with a given upstream regulator. An activation z-score of 2 or greater is considered significant and the direction change is indicated by +(activated) or − (inhibited). The top 5 pathways included: IL-9 signaling, glucocorticoid receptor signaling, prolactin signaling, JAK STAT signaling, and IL-17 signaling. The top 6 upstream regulators (activation z-score) included: lipopolysaccharide (−6.725), TNF (−4.669), IFNG (−5.759), IL-1β (−5.947), STAT1 (−2.787), and poly rl:rC-RNA (−5.289). Even though this study was run in the murine model, the top upstream regulators identified as being modulated by M9 include an almost ubiquitous overlap with the pathways identified in the natural disease study as being key mediators in BRD, and therefore is modulating highly relevant pathways in BRD pathobiology.

In the next assay the test system is E. coli. In words: In-vitro MIC model (CLSI broth micro-dilution). The settings on record: Escherichia coli, ATCC25922, read-out: Comparative MIC's, E. coli ATCC 25922.
The next assay relates to IL-6. Kind of assay: Plasma IL-6 biomarker in bovine M. haemolytica challenge. The settings on record: bovine, in vivo.
Setting [3] is: H. somni (25) lung isolates at necropsy, natural BRD study.
The mark [4] stands for this setting: M. haemolytica (116) lung isolates at necropsy, natural BRD study.
[5] abbreviates: P. multocida (33) lung isolates at necropsy, natural BRD study.

`CCCN1C[C@H](C)[C@@H](O)[C@](C)(O)[C@@H](CC)OC(=O)[C@H](C)[C@@H](O[C@H]2C[C@@](C)(OC)[C@@H](O)[C@H](C)O2)[C@H](C)[C@@H](O[C@@H]2O[C@H](C)C[C@H](N(C)C)[C@H]2O)[C@](C)(O)C[C@H]1C` [gamithromycin (Zactran)]: in the assay with H. somni (setting [3]), the MIC50 – broadly, an inhibitory concentration at the 50% level, which refers to growth in some studies and to a panel of isolates in others – worked out at 0.25 µg/mL (≈ 0.322 µM); the MIC90 (usually the lowest concentration that inhibits either 90% of growth or 90% of the strains tested, depending on the study) was 2 µg/mL (≈ 2.57 µM); the “MIC Range” value lay in the range of 0.12 to 2 µg/mL. Further, in the assay on M. haemolytica (setting [4]), the MIC50 came to 1 µg/mL (≈ 1.29 µM) and the MIC90 was more than 64 µg/mL. Moreover, in the assay on P. multocida [1] (setting [5]), the MIC50 was determined as 1 µg/mL (≈ 1.29 µM) and the MIC90 was more than 64 µg/mL.
For the compound `CO/N=C(\C(=O)N[C@@H]1C(=O)N2C(C(=O)O)=C(CSC(=O)c3ccco3)CS[C@H]12)c1csc(N)n1` [ceftiofur], the “Survival at Day 7” value with P. multocida [2] is approximately 90%.
As to `CCCNC[C@]1(O)[C@H](C)O[C@@H](O[C@H]2[C@H](C)[C@@H](O[C@@H]3O[C@H](C)C[C@H](N(C)C)[C@H]3O)[C@](C)(O)C[C@@H](C)CN[C@H](C)[C@@H](O)[C@](C)(O)[C@@H](CC)OC(=O)[C@@H]2C)C[C@@]1(C)OC` [Tulathromycin, (2R,3S,4R,5R,8R,10R,11R,12S,13S,14R)-11-(((2S,3R,4S,6R)-4-(dimethylamino)-3-hydroxy-6-methyltetrahydro-2H-pyran-2-yl)oxy)-2-ethyl-3,4,10-trihydroxy-13-(((2R,4R,5S,6S)-5-hydroxy-4-methoxy-4,6-dimethyl-5-((propylamino)methyl)tetrahydro-2H-pyran-2-yl)oxy)-3,5,8,10,12,14-hexamethyl-1-oxa-6-azacyclopentadecan-15-one], the “Survival at Day 7” value in the assay with P. multocida [2] is recorded as “about 80%”. Moreover, the MIC (in general, the least concentration at which growth counts as inhibited) with E. coli worked out at 2 µg/mL (≈ 2.48 µM); in the assay on M. haemolytica (Mannheimia haemolytica, ATCC33396, read-out: Comparative MIC's, M. haemolytica ATCC 33396), 1 µg/mL (≈ 1.24 µM); in the assay with M. haemolytica (Mannheimia haemolytica, read-out: Comparative MIC's, M. haemolytica 12726) it was 2 µg/mL (≈ 2.48 µM); in the assay with M. haemolytica (Mannheimia haemolytica, read-out: Comparative MIC's, M. haemolytica 46571*) it was 1 µg/mL (≈ 1.24 µM); in the assay with P. multocida [1] (Pasteurella multocida, ATCC43137, read-out: Comparative MIC's, P. multocida ATCC 43137), 1 µg/mL (≈ 1.24 µM). In addition, the “IL-6 levels (plasma) in bovine M. haemolytica challenge” value in the assay with IL-6 is on record as “significantly reduced”.
For the compound `CCCN1C[C@H](C)[C@@H](O)[C@](C)(O)[C@@H](CC)OC(=O)[C@H](C)[C@@H](O[C@H]2C[C@@](C)(OC)[C@@H](O)[C@H](C)O2)[C@H](C)[C@@H](O[C@@H]2O[C@H](C)C[C@H](N(C)C)[C@H]2O)[C@](C)(O)C[C@H]1C` [gamithromycin], the MIC lay within 0.25 to 8 µg/mL against H. somni (H. somni (31 strains)), 0.5 to 1 µg/mL in the assay with M. haemolytica (25 different strains of M. haemolytica) and 1 to 2 µg/mL against P. multocida [1] (25 different strains of P. multocida).
